# Reference: patent US20230348453A1, “HALOGENATED-HETEROARYL AND OTHER HETEROCYCLIC KINASE INHIBITORS, AND USES THEREOF” (iOmx Therapeutics AG, priority 2020, published 2023)
# Like-named read-outs stand apart in the source and are kept apart here.
# Columns and labels:
# K562 human CML tumours = conditions: PO once a day for 10 days, 5-days-on and 2-days off; cited from earlier work
# CSF1R = CSF1R (Homo sapiens (Human), UniProt P07333); format: biochemical; conditions: Kinase Profiler
# HCK = HCK (Homo sapiens (Human), UniProt P08631); format: biochemical; conditions: Kinase Profiler
# [1] = microsomes
# [2] = microsomes; remark: listed apart in the source
# [3] = mouse, in vivo, po, 30 mg/kg
# [4] = in vivo
# in vivo = conditions: male, CD1, mouse, po, 30 mg/kg
# in vitro [5] = conditions: human, microsomes
# in vitro [6] = conditions: mouse, microsomes
# in vitro [7] = conditions: dog, MDCK, MDCK-wild type cells
# MDR1 (P-gp) = MDR1 (P-gp) (Homo sapiens (Human), UniProt P08183); experiment: in vitro; conditions: dog, MDCK-MDR1, MDCK-MDR1 cells
# RET = RET (Homo sapiens (Human), UniProt P07949); experiment: biochemical; conditions: read-out: RET residual activity (%) at 1 μM, 1 μM
# Sequence of RET (P07949 29-1114 limits assumed): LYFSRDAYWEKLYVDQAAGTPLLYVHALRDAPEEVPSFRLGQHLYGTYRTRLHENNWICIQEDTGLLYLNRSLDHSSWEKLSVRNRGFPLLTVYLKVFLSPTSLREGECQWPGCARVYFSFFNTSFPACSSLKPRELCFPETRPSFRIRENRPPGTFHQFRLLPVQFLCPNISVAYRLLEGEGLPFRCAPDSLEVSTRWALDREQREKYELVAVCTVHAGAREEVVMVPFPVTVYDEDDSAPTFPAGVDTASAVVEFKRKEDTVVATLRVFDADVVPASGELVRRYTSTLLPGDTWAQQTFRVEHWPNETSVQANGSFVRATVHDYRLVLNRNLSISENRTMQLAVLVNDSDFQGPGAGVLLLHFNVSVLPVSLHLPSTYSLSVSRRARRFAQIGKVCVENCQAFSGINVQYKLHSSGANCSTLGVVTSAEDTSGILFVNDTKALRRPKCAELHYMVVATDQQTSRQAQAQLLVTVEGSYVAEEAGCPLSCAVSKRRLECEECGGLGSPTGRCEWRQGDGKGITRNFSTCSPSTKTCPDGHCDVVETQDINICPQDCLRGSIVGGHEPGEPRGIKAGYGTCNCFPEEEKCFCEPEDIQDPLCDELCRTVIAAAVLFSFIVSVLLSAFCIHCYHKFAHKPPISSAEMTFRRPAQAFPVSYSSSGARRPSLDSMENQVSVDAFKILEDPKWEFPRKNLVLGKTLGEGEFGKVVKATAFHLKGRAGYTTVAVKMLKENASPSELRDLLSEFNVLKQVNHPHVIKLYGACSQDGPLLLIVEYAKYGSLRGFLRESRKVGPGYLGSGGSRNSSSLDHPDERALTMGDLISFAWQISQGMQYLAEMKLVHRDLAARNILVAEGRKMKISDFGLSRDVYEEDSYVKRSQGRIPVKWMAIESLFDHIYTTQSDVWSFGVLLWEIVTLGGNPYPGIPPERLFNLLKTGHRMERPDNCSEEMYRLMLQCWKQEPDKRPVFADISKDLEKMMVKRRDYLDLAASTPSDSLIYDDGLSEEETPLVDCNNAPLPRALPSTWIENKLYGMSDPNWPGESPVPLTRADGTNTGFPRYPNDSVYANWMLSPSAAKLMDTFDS
# BRAF = BRAF (Homo sapiens (Human), UniProt P15056); experiment: biochemical; conditions: read-out: BRAF residual activity (%) at 1 μM, 1 μM
# [8] = Human plasma-protein binding
# [9] = Murine plasma protein binding
# [10] = Full pharmacokinetic study in mice; conditions: for half-life: male, CD1, mouse, plasma
# [11] = Screening PK in mice after 30 mg/kg po; conditions: plasma, po, 30 mg/kg
# panel of AML cell lines = experiment: Lysis of a panel of AML cell lines; format: cell-based; conditions: cell lines that have phosphorylated MEF2C protein
# KASUMI-1 cell line [12] = experiment: Cell killing of pMEF2C-positive KASUMI-1 cell line; format: cell-based
# HEL cell line [13] = experiment: Cell killing of pMEF2C-negative HEL cell line; format: cell-based
# [14] = Human hepatocyte stability; format: in vitro ADME; conditions: human, hepatocytes
# [15] = Mouse hepatocyte stability; format: in vitro ADME; conditions: hepatocytes
# [16] = Plasma stability in human plasma; format: in vitro ADME; conditions: read-out: plasma stability T1/2
# [17] = Plasma stability in mouse plasma; format: in vitro ADME; conditions: read-out: plasma stability T1/2
# KASUMI-1 cell line [18] = experiment: Growth inhibition (GI50) of AML cell lines; format: cell-based
# MV4-11 cell line = experiment: Growth inhibition (GI50) of AML cell lines; format: cell-based; conditions: Homo sapiens, MV4-11, read-out: GI50 against MV4-11 cell line
# HEL cell line [19] = experiment: Growth inhibition (GI50) of AML cell lines; format: cell-based; conditions: Homo sapiens, pMEF2C-negative, read-out: GI50 against HEL cell line
# [20] = Metabolite profile in hepatocytes / in vivo
# From the text: Metabolites are identified using high-resolution mass spectrometry.
# [21] = system: MC38 colorectal carcinoma tumours; experiment: MC38 syngeneic mouse tumour model (Example 8.1); conditions: MC38; 100 mg/Kg, BID po
# [22] = system: HDAC4 phosphorylation in PANC-1 cells; experiment: HDAC4 phosphorylation (Meso Scale Discovery assay); conditions: 10 ng/mL rHuTNF
# [23] = system: MC38 murine tumour cell line; experiment: TNF-sensitised cell viability assay (CellTiter-Glo); conditions: Mus musculus
# HCT116 cells = experiment: as above; conditions: Homo sapiens, HCT-116, read-out: HCT116 IC50 (at 10 ng/ml rHuTNF)
# [24] = system: NFKB activity in PANC-1 cells; experiment: TNF-induced NFKB activity (NFKB-dependent luciferase reporter); conditions: 10 ng/ml rHuTNF
# [25] = system: NFKB activity in MC38 cells; experiment: as above; conditions: 10 ng/ml rMuTNF
# AML = conditions: administered intraperitoneally; cited from earlier work
# [26] = in vivo; cited from earlier work
# [27] = system: MPAL-associated AML cell lines (including MOLM-13 and MV4-11); conditions: chemical inhibition of SIK3; cited from earlier work
# Sequence of CSF1R (P07333 20-972 limits assumed): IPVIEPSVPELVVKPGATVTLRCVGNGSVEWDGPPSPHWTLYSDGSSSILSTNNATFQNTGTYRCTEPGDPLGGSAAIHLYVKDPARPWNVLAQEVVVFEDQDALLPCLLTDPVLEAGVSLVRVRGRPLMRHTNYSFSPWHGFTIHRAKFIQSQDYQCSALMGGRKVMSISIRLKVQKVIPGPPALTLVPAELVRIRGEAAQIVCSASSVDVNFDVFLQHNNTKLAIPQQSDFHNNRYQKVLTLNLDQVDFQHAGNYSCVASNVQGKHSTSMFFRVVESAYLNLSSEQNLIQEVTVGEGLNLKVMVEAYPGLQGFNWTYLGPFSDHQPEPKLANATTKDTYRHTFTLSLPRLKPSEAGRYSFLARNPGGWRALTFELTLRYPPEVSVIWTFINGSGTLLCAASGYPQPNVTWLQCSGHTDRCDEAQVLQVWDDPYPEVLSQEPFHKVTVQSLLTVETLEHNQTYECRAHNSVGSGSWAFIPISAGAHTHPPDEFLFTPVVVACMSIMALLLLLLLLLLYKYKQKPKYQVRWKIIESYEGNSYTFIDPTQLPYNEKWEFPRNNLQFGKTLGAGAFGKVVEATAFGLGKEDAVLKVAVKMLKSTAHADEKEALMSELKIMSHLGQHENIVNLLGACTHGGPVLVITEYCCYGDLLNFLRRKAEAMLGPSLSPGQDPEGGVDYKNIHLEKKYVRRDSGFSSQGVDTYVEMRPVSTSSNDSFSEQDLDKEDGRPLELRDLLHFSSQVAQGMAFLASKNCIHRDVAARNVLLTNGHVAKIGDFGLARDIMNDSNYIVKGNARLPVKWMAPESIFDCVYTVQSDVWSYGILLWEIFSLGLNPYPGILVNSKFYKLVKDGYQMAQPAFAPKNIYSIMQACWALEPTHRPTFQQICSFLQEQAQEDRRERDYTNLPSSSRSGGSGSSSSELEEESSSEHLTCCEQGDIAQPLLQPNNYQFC
compound,measurement,setting,value
Cc1ccc(NC(=O)c2ccc(CN3CCN(C)CC3)cc2)cc1Nc1nccc(-c2cccnc2)n1 [imatinib],outcome in mice bearing K562 human CML tumours,K562 human CML tumours,failed to produce a comparative response
"Cc1nc(Nc2ncc(C(=O)Nc3c(Cl)ccnc3C)s2)cc(N2CCN(CCO)CC2)n1 [Compound B3, N-(4-chloro-2-methylpyridin-3-yl)-2-((6-(4-(2-hydroxyethyl)piperazin-1-yl)-2-methylpyrimidin-4-yl)amino)thiazole-5-carboxamide]",CSF1R residual activity,CSF1R,less than 1%
same,HCK residual activity,HCK,less than 1%
same,"Human liver microsomal stability, Intrinsic clearance",[1],24 µL/min/mg
same,"Mouse liver microsomal stability, Intrinsic clearance (L/min/mg)",[2],22 µL/min/mg
same,Plasma concentration after 6 h,[3],29 nM
same,"% AUCextrap, Total","[4]; male, CD1, mouse, po, 30 mg/kg",14%
same,AUC(0-inf),in vivo,0.697 µM·h
same,half-life,in vitro [5],0.967 h
same,half-life,in vitro [6],1.03 h
same,Papp,in vitro [7]; Mean Papp A > B (10^−6 cm/s),6.8 ×10⁻⁶ cm/s
same,Papp,in vitro [7]; Mean Papp B > B (10^−6 cm/s),20 ×10⁻⁶ cm/s
same,Papp,MDR1 (P-gp),20 ×10⁻⁶ cm/s
same,Papp,MDR1 (P-gp); Mean Papp A > B (10^−6 cm/s),< 0.8 ×10⁻⁶ cm/s
same,remaining activity at 1 µM,RET,~100%
same,remaining activity at 1 µM,BRAF,~50%
same,"Human plasma-protein binding, Percentage unbound (%)",[8]; Table 5A,7%
same,"Human plasma-protein binding, Percentage unbound (%)",[8]; Table 5.1A,7%
same,"Murine plasma protein binding, Percentage unbound (%)",[9]; Table 5A,11%
same,"Murine plasma protein binding, Percentage unbound (%)",[9]; Table 5.1A,11%
same,half-life,"[10]; iv, 1 mg/kg",0.2 h
same,half-life,"[10]; po, 30 mg/kg",2.4 h
same,"Cmax (ng/ml), Total","[10]; mouse, in vivo",99 ng/mL
same,"t1/2 (h), Free","[10]; mouse, in vivo",2.4 h
same,concentration at 2 h,"[11]; CD1, mouse, Free concentration (nM) at 2 hours, mice, 30 mg/kg po, 2 hours",13 nM
same,concentration at 7 h,"[11]; CD1, mouse, Free concentration (nM) at 7 hours, mice, 30 mg/kg po, 7 hours",3 nM
same,Cmax at 2 h,[11]; mouse,56 ng/mL
"Cc1nc(Nc2ncc(C(=O)Nc3c(C)csc3Cl)s2)cc(N2CCN(CCO)CC2)n1 [Compound C7, N-(2-chloro-4-methylthiophen-3-yl)-2-((6-(4-(2-hydroxyethyl)piperazin-1-yl)-2-methylpyrimidin-4-yl)amino)thiazole-5-carboxamide]",lysis of AML cell lines,panel of AML cell lines,strong lysis
same,cell killing,KASUMI-1 cell line [12],highly potent cell killing
same,cell killing,HEL cell line [13],low cell killing
same,CSF1R residual activity,CSF1R,less than 1%
same,HCK residual activity,HCK,less than 1%
same,half-life,"[14]; read-out: Human hepatocyte stability, Half-life",0.9 h
same,microsomal CLint,"[14]; read-out: Human hepatocyte stability, Intrinsic clearance",26 µL/min/mg
same,half-life,[14]; read-out: half-life in the presence of human hepatocytes (converted),~1 h
same,half-life,[15],0.833 h
same,microsomal CLint,"[15]; read-out: Mouse hepatocyte stability, Intrinsic clearance",28 µL/min/mg
same,half-life,[16],> 2.5 h
same,half-life,[17],> 2.5 h
same,GI50,"KASUMI-1 cell line [18]; Homo sapiens, Kasumi 1, read-out: GI50 against KASUMI-1 cell line, pMEF2C-positive",~2 nM
same,GI50,"KASUMI-1 cell line [18]; read-out: GI50 against KASUMI-1 cell line, pMEF2C-positive",1.6 nM
same,GI50,MV4-11 cell line,480 nM
same,GI50,HEL cell line [19],~5000 nM
same,"Human liver microsomal stability, Intrinsic clearance",[1],2.53e+08 µL/min/mg
same,"Human liver microsomal stability, % Remaining at 40 min (%)",[1]; 40 min,1%
same,"Mouse liver microsomal stability, % Remaining at 40 min (%)",[2]; 40 min,10%
same,% AUCextrap,"[4]; male, CD1, mouse, iv, 1 mg/kg",5.81%
same,% AUCextrap,"[4]; male, CD1, mouse, po, 30 mg/kg",0.45%
same,"% AUCextrap, Free","[4]; male, CD1, mouse, po, 30 mg/kg",11.24%
same,"% AUCextrap, Total","[4]; male, CD1, mouse, po, 30 mg/kg",11.24%
same,"AUCinf (nM*h), Free","[4]; male, CD1, mouse, po, 30 mg/kg",58.79 nM·h
same,"AUClast (nM*h), Free","[4]; male, CD1, mouse, po, 30 mg/kg",52.07 nM·h
same,"Rsq, Free","[4]; mouse, po, 30 mg/kg",0.99
same,"Rsq, Total","[4]; mouse, po, 30 mg/kg",0.99
same,tolerable dose,"BID by gavage, female C57BL/6, seven days",up to 100 mg/kg
same,HRD in vivo @BID,"highest recommended dose, BID",100 mg/kg
same,HRD in vivo @QD,"highest recommended dose, QD",100 mg/kg
same,AUC(0-inf),in vivo,1.31 µM·h
same,AUC(0-t),in vivo,1.16 µM·h
same,Cmax,in vivo,474 ng/mL
same,MRT last,in vivo,2.75 h
same,half-life,in vivo,1.42 h
same,half-life,in vitro [5],0.167 h
same,microsomal CLint,in vitro [5],142 µL/min/mg
same,half-life,in vitro [6],0.217 h
same,microsomal CLint,in vitro [6],110 µL/min/mg
same,Papp,in vitro [7]; Mean Papp A > B (10^−6 cm/s),9 ×10⁻⁶ cm/s
same,Papp,MDR1 (P-gp); Mean Papp A > B (10^−6 cm/s),2 ×10⁻⁶ cm/s
same,"Human plasma-protein binding, Percentage unbound (%)",[8]; Table 5A,<1%
same,"Human plasma-protein binding, Percentage unbound (%)",[8]; Table 5.1A,2%
same,recovery at 4 h,[8]; human,75%
same,"Murine plasma protein binding, Percentage unbound (%)",[9]; Table 5A,5%
same,"Murine plasma protein binding, Percentage unbound (%)",[9]; Table 5.1A,3%
same,recovery at 4 h,[9]; mouse,87%
same,quinone-imine reactive metabolite,[20],not observed
same,Body weight increase (%),[21],1.0%
same,Non-treatment related death,[21],3/16
same,Tumour growth inhibition (%),[21],78%
same,Inhibition of HDAC4 phosphorylation,[22]; 3 h,+
same,Inhibition of HDAC4 phosphorylation,[22]; 3 h (Table 9C),+
same,IC50,"[23]; MC-38, read-out: MC38 IC50 (at 100 ng/mL rMuTNF)",< 200 nM
same,EC50,"[23]; MC-38, read-out: mean EC50 of sensitising MC38 tumour cells to TNF-mediated killing",~150 nM
same,IC50,HCT116 cells,< 100 nM
same,Inhibition of NFKB activity (PANC-1),[24]; PANC-1 reporter cells,+
same,Inhibition of NFKB activity,[24]; PANC-1 reporter cells (Table 9C),+
same,Inhibition of NFKB activity (MC38),[25],+
COc1ccc(N2C(=O)N(c3c(C)cccc3Cl)Cc3cnc(Nc4ccc(C5CCN(C)CC5)cc4OC)nc32)nc1 [YKL-05-099],AML progression,AML,supressed AML progression in-vivo
Cc1cn(-c2cc(NC(=O)c3ccc(C)c(Nc4nccc(-c5cccnc5)n4)c3)cc(C(F)(F)F)c2)cn1 [nilotinib],terminal / elimination half-life,[26],approximately 17 hours
HG-9-91-01,viability of AML cell lines,[27],strongly decreases viability
